# Like-named read-outs stand apart in the source and are kept apart here.
# What was measured:
# Type in all cases: in vivo
# Aedes aegypti larvae [1] = system: Aedes aegypti larvae
# Description: This example describes a laboratory bioassay in which groups of mosquito larvae were exposed to a nootkatone-containing composition to determine larval susceptibility to nootkatone.
# One milliliter of a solution of nootkatone in ethanol was applied directly to 100 milliliters of water containing larvae, using a micropipette. One treatment condition used 3% (v/v) nootkatone in ethanol, and a second treatment condition used 1% (v/v) nootkatone in ethanol, for final concentrations of 0.03% or 0.01% (v/v), respectively. One milliliter of pure ethanol was used as a control. Four replicates of 25 larvae were tested per treatment. Clean, glass 600 mL laboratory beakers were used as test containers such that the surface area of the water to be treated was 54 cm^2.
# (§1) Larvae were observed after 24 hours post-introduction to the test containers.
# (§2) Readings were discontinued if treated mortality reached 100%, or control mortality exceeded 20%.
# 3rd/4th instar larvae = experiment: Duration of protection from larvae, Method 1: daily addition of new larval cohorts to treated beakers (Example No. 4)
# Description: Method 1: Clean, glass 600 mL beakers were set up as test containers (such that the surface area of water to be treated was 54 cm^2), and were treated with 1 mL of 3% nootkatone in ethanol (v/v), or 1 mL of ethanol alone, as in Example No. 1, to achieve a final concentration of 0.03% nootkatone (v/v). After 24 hours, 100% of larvae were dead in the treated beakers, but 100% were alive in the control beakers, as in Example No. 1. An additional cohort of 25 larvae was added to each treatment beaker in the smallest practical volume of additional water, estimated at 1 mL per beaker. After an additional 24 hours, total live and dead larvae were counted and recorded. Testing continued by addition of new larval cohorts (25 per beaker, per day) for additional 24 hour periods until either there were no available 3rd/4th instar larvae, or until the rate of larval killing decreased.
# In two replicate experiments, larvae cohorts were added to test containers in the presence of 0.03% nootkatone, 1% ethanol, starting 24 to 72 hours after addition of nootkatone and ethanol to the test containers (see FIGS. 5 and 6). In the second experiment, additional additional larval replicates were added simultaneously to test containers in the presence of 0.01% nootkatone, 1% ethanol (see FIG. 6).
# In a separate experiment with the same experimental set-up, test containers were inoculated with nootkatone in ethanol 48 hours prior to addition of larvae (see FIG. 7). In these experiments, 100% of larvae were killed within 24 hours up to a week after nootkatone treatment. One week after addition of nootkatone, larval mortality was still at 94%.
# Aedes aegypti larvae [2] = experiment: Nootkatone crystals dropped onto the water surface as larvicide (Example No. 9, Treatment 3); conditions: for Alive / Dead / KD: 30 mg NK crystals in 100 mL water
# Description: In this example, nootkatone-containing compositions were evaluated for their ability to act as a larvicide by coating a water surface. Mixed sex 3rd and 4th instar Aedes aegypti larvae (Yellow fever mosquito) were tested.
# Standard storage conditions for nootkatone crystals is 4° C., therefore, the ability of crystals to coat a water surface without first liquifying them was tested. 30 mg of 98% pure nootkatone crystals was weighed and gently dropped onto the surface of 100 mL of water in a 600 mL clean, glass beaker containing 10 mixed sex 3rd and 4th instar Aedes aegypti larvae (3 replicates). Three control replicates of 10 larvae each were placed in identical beakers of 100 mL of water, but without nootkatone. All beakers were provided with finely ground fish food, and they were maintained at room temperature (˜72° F.).
# Aedes aegypti larvae [3] = experiment: Larval bioassay comparing nootkatone with soy oil and mineral oil (Example No. 2); conditions: FIG. 3
# Description: This example describes a laboratory bioassay in which groups of mosquito larvae were exposed to compositions that contain oils, but not nootkatone, to determine whether larval mortality was due to suffocation by oils in general, or due to a specific property of nootkatone.
# One milliliter of a solution of oil in ethanol was applied directly to 100 milliliters of water containing larvae, using a micropipette. One treatment condition used 3% (v/v) soybean oil in ethanol, and a second treatment condition used 3% (v/v) mineral oil in ethanol, for final concentrations of 0.03% (v/v), respectively. One milliliter of pure ethanol was used as a control, and 0.03% (v/v) nootkatone in ethanol was included as a comparison of efficacy. Two replicates of 25 larvae were tested per treatment in clean, glass 600 mL beakers.
# as §2
# mosquito larvae = system: mosquito larvae
# Description: In this example, concentration titration was performed to determine effective concentrations of nootkatone in nootkatone-containing protective compositions that maintain larvicidal activity, and to determine the effect of surface area on larvicidal activity of nootkatone-containing compositions.
# One milliliter of a solution of nootkatone in ethanol was applied directly to 200 milliliters of water containing larvae, using a micropipette. One treatment condition used 3% (v/v) nootkatone in ethanol, a second treatment condition used 1% (v/v) nootkatone in ethanol, and a third treatment used 0.5% (v/v) nootkatone in ethanol, for final concentrations of 30, 10, or 5 mg of nootkatone added per container. One milliliter of pure ethanol was used as a control. Three replicates of 25 larvae were tested per treatment in small- (250 mL flasks (23.8 cm^2 surface area) and medium-sized (600 mL beakers (54 cm^2 surface area)) containers, but only two replicates were made in large 1000 mL beakers (86.6 cm^2 surface area).
# Containers were lightly covered with paper towels. Indicated surface areas were calculated based on the inside diameter of the container at the surface level when 200 mL water was added to the container.
# as §1, §2
# [4] = 30 mg nootkatone crystals, at 27 hours
structure (smiles),measurement,setting,value
"C=C(C)[C@@H]1CCC2=CC(=O)C[C@@H](C)[C@]2(C)C1 [Nootkatone, nootkatone]","larvae killed, on average","Aedes aegypti larvae [1]; 0.01% (v/v) nootkatone final, 24 hours of exposure, four replicates",80%
same,mortality,"Aedes aegypti larvae [1]; 0.01% (v/v) nootkatone final, after 48 hours",100%
same,"Dead (mortality), mean","Aedes aegypti larvae [1]; 0.03% (v/v) nootkatone final (1 mL of 3% in ethanol to 100 mL water), 54 cm^2, 24 hours post introduction",100%
same,"Affected, mean","Aedes aegypti larvae [1]; 0.03% (v/v) nootkatone final, 1% ethanol, 100 mL water, 54 cm^2, 24 hours post introduction",100.0%
same,"Morbidity (M), mean","Aedes aegypti larvae [1]; 0.03% (v/v) nootkatone final, 1% ethanol, 100 mL water, 54 cm^2, 24 hours post introduction, four replicates of 25 larvae",0%
same,mortality rate,"3rd/4th instar larvae; 0.01% nootkatone (v/v), 72 hours after application, FIG. 6",about 10%
same,mortality,"3rd/4th instar larvae; 0.01% nootkatone (v/v), larvae added after application, through 48 hours, FIG. 6",100%
same,larvae dead,"3rd/4th instar larvae; 0.03% nootkatone (v/v), after 24 hours, first cohort",100%
same,mortality,"3rd/4th instar larvae; 0.03% nootkatone (v/v), larvae added 0, 24, 48, and 78 hours after application, FIG. 5",100%
same,mortality,"3rd/4th instar larvae; 0.03% nootkatone (v/v), larvae added after application, through 48 hours, FIG. 6",100%
same,mortality,"3rd/4th instar larvae; 0.03% nootkatone (v/v), through 72 hours after application, FIG. 6",100%
same,mortality rates,"3rd/4th instar larvae; 0.03% nootkatone (v/v), through one week of treatment, FIG. 7",greater than 90%
same,larvae killed within 24 hours,"3rd/4th instar larvae; 0.03% nootkatone, containers inoculated 48 hours prior to larvae, up to a week after nootkatone treatment, FIG. 7",100%
same,larval mortality,"3rd/4th instar larvae; 0.03% nootkatone, one week after addition of nootkatone, FIG. 7",94%
same,Alive,Aedes aegypti larvae [2]; 1 hr,100%
same,Dead,Aedes aegypti larvae [2]; 1 hr,0%
same,KD,Aedes aegypti larvae [2]; 1 hr,0%
same,Alive,Aedes aegypti larvae [2]; 27 hr,53%
same,Dead,Aedes aegypti larvae [2]; 27 hr,7%
same,KD,Aedes aegypti larvae [2]; 27 hr,40%
same,Alive,Aedes aegypti larvae [2]; 54 hr,3%
same,Dead,Aedes aegypti larvae [2]; 54 hr,70%
same,KD,Aedes aegypti larvae [2]; 54 hr,27%
same,Alive,Aedes aegypti larvae [2]; 77.5 hr,0%
same,Dead,Aedes aegypti larvae [2]; 77.5 hr,97%
same,KD,Aedes aegypti larvae [2]; 77.5 hr,3%
same,killing,"Aedes aegypti larvae [2]; 30 mg nootkatone crystals, after more than 3 days",below 100%
same,larvae alive (unaffected plus affected),Aedes aegypti larvae [2]; [4],93%
same,larvae that appeared to be unaffected,Aedes aegypti larvae [2]; [4],~50%
same,larvae killed,"Aedes aegypti larvae [3]; 0.03% (v/v) final in water with ethanol, in 24 hours, two replicates of 25 larvae",100%
same,effectiveness of killing larvae versus soy oil and mineral oil,"Aedes aegypti larvae [3]; 0.03% (v/v), after 24 hr treatment",more effective than either soy oil or mineral oil
same,larval mortality,"mosquito larvae; 5 mg nootkatone in 200 mL water, 250 mL flasks, 23.8 cm^2, 24 hours",68%
same,larvae killed,"mosquito larvae; 5 mg nootkatone in 200 mL water, largest containers, 86.6 cm^2, 24 hours",did not kill
same,larval mortality,"mosquito larvae; 5 mg nootkatone in 200 mL water, medium sized containers, 54 cm^2, 24 hours",16%
same,larvae killed in 24 hours,"mosquito larvae; 10 mg nootkatone in 200 mL water, flasks with smallest surface area 23.8 cm^2 (about 0.42 mg/cm^2)",killed all larvae
same,larvae killed in 24 hours,"mosquito larvae; 30 mg nootkatone in 200 mL water, any container size (23.8, 54, 86.6 cm^2)",kill all larvae
same,surface concentration at which nootkatone exhibits larvicidal properties,"mosquito larvae; 24 hours, water surface",at least 0.09 mg/cm^2

# From patent US11154057B2, “Use of nootkatone to treat mosquito infestations” (EVOLVA SA, priority 2016, dated 2021)
